Experimental data reported in article PMC5933457, “Probing biological activity through structural modelling of ligand-receptor interactions of 2,4-disubstituted thiazole retinoids” (Bioorganic & Medicinal Chemistry, 2018).
Read-outs that look alike come from different tables or passages of the source.

What was measured:
[1] = target: T1, RARα ligand-binding domain (GST-RAR-α-LBD) (Homo sapiens, UniProt P10276); experiment: LanthaScreen TR-FRET RARα co-activator (receptor binding) assay; format: biochemical; details: for binding-curve upper asymptote (coactivator recruitment), RARα: in words, Fig. 6A; for EC50: read-out: EC50 (95% confidence range) RARα
T1 construct: purchased Invitrogen
T1 sequence (P10276 183-417 limits assumed): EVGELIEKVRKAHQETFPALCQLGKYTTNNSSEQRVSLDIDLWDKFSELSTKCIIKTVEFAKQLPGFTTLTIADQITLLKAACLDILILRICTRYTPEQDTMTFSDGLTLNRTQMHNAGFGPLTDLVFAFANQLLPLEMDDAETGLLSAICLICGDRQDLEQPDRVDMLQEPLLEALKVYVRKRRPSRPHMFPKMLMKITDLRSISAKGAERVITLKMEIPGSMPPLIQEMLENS
Procedure: (§1) These predictions were tested through a receptor-binding assay for each RAR isotype (Fig. 6), where the assay signal is dependent on two parameters: the binding affinity of ligand to the RAR LBD, and the affinity of the coactivator for the ligand-LBD complex. For this assay, binding curves and variation in level of the upper asymptote can reflect differences in co-activator affinity for the ligand-LBD complex; variation in affinity of ligand for LBD shifts the midpoint (EC50) of the binding curve, whereas changes in the level of the upper asymptote may result from changes in coactivator affinity for the ligand-LBD complex alone, or in combination with changes in affinity for ligand with LBD.[23]
(§2) The binding interaction of each retinoid with RARα, β and γ were determined in vitro by time-resolved fluorescence resonance energy transfer (TR-FRET) using the LanthaScreen TR-FRET RARα, RARβ, and RARγ co-activator assays according to the manufacturer’s (Invitrogen™) instructions.[23] This uses a terbium-labeled anti-GST antibody, a fluorescein-labeled co activator peptide, and RARα/β/γ ligand-binding domains (LBD) that are tagged with glutathione-S-transferase (GST) in a homogenous assay format. All experiments were performed in black, 384-well low-volume plates in the dark at RT with a 4 h incubation time. The final assay volume was 20 μL and all dilutions were carried out using TR-FRET assay buffer, with a final DMSO concentration of 1%. A mixture of either 3.5 nM GST-RAR-α-LBD or 2.5 nM GST-RAR-β-LBD or 3 nM GST-RAR-γ-LBD with 62.5 nM Tb-anti GST antibody and 30 μM fluorescein-labeled peptide and retinoid or DMSO control was added to each of the wells. Each ligand assay was performed in duplicate and measured using a PHERAstar FS Microplate Reader (BMG Labtech, Ortenberg, Germany) with instrument settings as described in the manufacturer’s instructions for LanthaScreen assays. The TR-FRET signal was expressed as the ratio of the signals at 520 nm and 490 nm. The data were fitted to a three-parameter ligand-binding curve using SigmaPlot (version 12.5, Systat Software Inc., San Jose CA) and normalized to the lower asymptote of each binding curve. […] Since the assay involves interactions between ligand and LBD, and ligand-dependent interactions between the LBD and fluorescein-labeled co activator, the binding assay data were interpreted by simulating these coupled chemical reactions using the biochemical simulator COPASI version 4.3.[23], [54]
(§3) The readout of the Lanthascreen TR-FRET binding assay is based on a Forster resonance energy transfer (FRET) signal generated from the interaction between a terbium-labelled anti-glutathione-S-transferase (GST) antibody and a fluorescein-labelled coactivator peptide. The RAR ligand-binding domain (LBD) is a GST fusion protein and interaction between the LBD and the fluorescein-labelled coactivator peptide is driven by the binding of ligand to the LBD, and detected by the FRET signal from the terbium/fluorescein interaction when the terbium-labelled anti-GST binds the LBD fusion protein. The output of the assay thus relies on two binding interactions: ligand with LBD, and ligand-bound LBD with the coactivator peptide. As both interactions may be affected by the fit of ligand to the binding pocket of the LBD, we used the biochemical pathway simulator COPASI^1 to build a simple model of how the FRET signal output in the assay will vary according to differential changes in the kinetics of the two binding interactions. Reactions were modelled deterministically using mass-action kinetics described by ordinary differential equations (ODE) within COPASI.^1 This model enables us to assess the effect of different rate constants and varying ligand concentration on the formation of the final ternary complex that is the read-out from the Lanthascreen TR-FRET assay.

[2] = target: T2, RARβ ligand-binding domain (GST-RAR-β-LBD) (Homo sapiens, UniProt P10826); experiment: LanthaScreen TR-FRET RARβ co-activator (receptor binding) assay; format: biochemical; details: for EC50: estimated EC50, TR-FRET co-activator assay, 4 h incubation, read-out: EC50 (95% confidence range) RARβ; for binding-curve upper asymptote (coactivator recruitment), RARβ: Fig. 6B
T2 construct: purchased Invitrogen
T2 sequence (P10826 183-417 limits assumed): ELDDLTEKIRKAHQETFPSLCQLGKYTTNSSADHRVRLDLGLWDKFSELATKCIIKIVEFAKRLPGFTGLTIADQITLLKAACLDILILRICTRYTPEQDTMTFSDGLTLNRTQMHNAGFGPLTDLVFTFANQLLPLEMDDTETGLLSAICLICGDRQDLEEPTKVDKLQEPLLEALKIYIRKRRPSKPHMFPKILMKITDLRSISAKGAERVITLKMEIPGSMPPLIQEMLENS
Procedure: as §1, §2, §3

[3] = tested on: TERA2.cl.SP12 embryonal carcinoma stem cells; experiment: Flow cytometry of cell-surface differentiation markers SSEA-3, TRA-1–60, A2B5; format: cell-based, human; details: 10 μM retinoid, 7 days, compared to ATRA and control cultures, Fig. 7A
Source text: First, we examined neuronal differentiation in pluripotent TERA2.cl.SP12 human embryonal carcinoma stem cells in response to retinoid treatment. TERA2.cl.SP12 cells have been used in previous studies, [29] to test the ability of synthetic retinoids to induce differentiation along a neuronal or an alternative epithelial pathway at long in vitro timescales of up to three weeks. […] Since the parent carboxylic acid (GZ24) had little activity, the response to GZ22 was a real effect of the ester rather than a result of hydrolysis of the parent ester to the carboxylic acid.
The expression of specific cell surface protein markers (SSEA-3, TRA-1–60, A2B5) on TERA2.cl.SP12 was analyzed using flow cytometry as described previously.[53] Briefly, TERA2.cl.SP12 cells, 2 × 10^5 per 25 cm^2 flask, were seeded 12–24 h before treatment with 10 μM retinoid for 7 days. The primary antibodies used were SSEA-3 (diluted 1:10, University of Iowa Hybridoma Bank), TRA-1–60 (diluted 1:50, Abcam) and neural cell marker A2B5 (diluted 1:40, R&D Systems). Labeled cells were analyzed in a Guave EasyCyte Plus System (Millipore) flow cytometer and thresholds determining the numbers of positively expressing cells were set against the negative control antibody, P3X.

[4] = target: T3, RARγ ligand-binding domain (GST-RAR-γ-LBD) (Homo sapiens, UniProt P13631); experiment: LanthaScreen TR-FRET RARγ co-activator (receptor binding) assay; format: biochemical; details: for EC50: estimated EC50, TR-FRET co-activator assay, 4 h incubation, read-out: EC50 (95% confidence range) RARγ; for binding-curve upper asymptote (coactivator recruitment), RARγ: in words, Fig. 6C
T3 construct: purchased Invitrogen
T3 sequence (P13631 185-419 limits assumed): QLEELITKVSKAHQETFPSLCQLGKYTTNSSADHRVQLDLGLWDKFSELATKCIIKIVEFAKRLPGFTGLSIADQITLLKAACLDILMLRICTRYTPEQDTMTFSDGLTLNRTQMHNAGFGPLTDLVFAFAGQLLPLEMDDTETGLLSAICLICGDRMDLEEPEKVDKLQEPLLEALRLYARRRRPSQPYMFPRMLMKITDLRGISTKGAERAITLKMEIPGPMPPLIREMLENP
Procedure: as §1, §2, §3

TERA2.cl.SP12 cells = experiment: Immunocytochemistry for A2B5, TUJ-1 and cytokeratin 8; format: cell-based, human
Procedure: Third, we carried out assessment of protein expression using immunofluorescent techniques on cultures of TERA2.cl.SP12 cells treated with retinoids.
TERA2.cl.SP12 cells were seeded at 5000 cells per well on poly-D-lysine (25 μg/ml) coated cover slips in 6-well plates. Cells were treated with each retinoid at a concentration of 10 μM for 7, 14 and 21 days (the media was changed every 3–4 days). Cells were also treated with 1% DMSO for the same time periods as a […] control. At the end of the treatment period, cells were fixed (4% para-formaldehyde in PBS for 30 min at room temperature (RT) and rinsed with PBS. One set of experiments was used for the cell surface marker A2B5 (diluted 1:100, R&D systems), and the other set was prepared for intracellular staining using 1% Triton-X-100 (Sigma Aldrich) in PBS as a permeabilizing agent for 10 min at RT. Non-specific labeling was blocked by incubation with a solution of 1% goat serum (Sigma Aldrich) containing 0.2% Tween-20 (Sigma Aldrich) in PBS for one hour at RT. The primary antibodies β-III tubulin antibody (TUJ-1) (1:200, Affymetrix eBioscience) and CK-8 antibody (1:500, Affymetrix eBioscience) were diluted in blocking solution and incubated with the cells for 1 h at RT. After washing three times for 15 min with PBS, cells were incubated for 1 h in the dark with anti-mouse FITC-conjugated secondary antibody IgM (1:128, Sigma Aldrich) for A2B5 staining, and anti-mouse Alexafluor 488 IgG (1:600, Invitrogen) for TUJ-1 and CK-8 staining. Hoechst 33,342 nuclear staining dye (1:1000, Molecular Probes) was dissolved in blocking solution after the secondary antibody staining step for nuclear staining.
Immunocytofluorescent images of fixed cells were visualized using a Leica SP5 confocal microscope. Scale bars are shown at 25 μm.

[5] = tested on: SH-SY5Y human neuroblastoma cells; experiment: Retinoid-induced gene expression (RARα, RARβ, RARγ, CYP26A1) by real-time PCR; format: cell-based
Procedure: As an additional assay of biological activity, short-term changes in expression of four genes in SH-SY5Y cells was employed; a neuroblastoma-derived lineage that undergoes neuronal differentiation in response to retinoid treatment. The four genes assayed, RARα, RARβ, RARγ and CYP26A, have RAREs associated with their promoters and may be directly regulated by retinoids.[51], [52]
(§4) Real time PCR was carried out immediately after treatment on both cell line lysates with 0.25% trypsin–EDTA. TERA-2.cl.SP12 cells were seeded at a density of 1 × 10^6 cells per 25 cm^2 flask, 12–24 h before treatment. […] SH-SY5Y cells were seeded at a density of 1 × 10^6 cells per 25 cm^2 flask, 12–24 h before treatment. […] Commercial RNA extraction kits (Qiagen) and reverse transcription (Applied Biosystems) kits were purchased and procedures used according to the manufacturer instructions. Real time PCR was performed using the TaqMan® Universal PCR Master Mix (Life technologies) and TaqMan® gene expression system (Applied Biosystems) based on probe sets to the specific genes to be analysed. Genecodes used are as follows: RARβ (Hs00233407_m1), CYP26-A1 (Hs00175627_m1), RARα (Hs00940448_g1), RARγ (Hs01559234_m1), PAX-6 (Hs01088112_m1), NeuroD1 (Hs01922995_s1). GADPH (Hs02758991_g1) and ACTB (Hs99999903_m1) were used as internal control genes for TERA-2.cl.SP12 and SH-SY5Y, respectively.

TERA2.cl.SP12 stem cells = experiment: Real-time PCR for neuronal markers NeuroD1 and PAX6; format: cell-based, human; details: 10 μM, Fig. 7B
Procedure: Second, NeuroD1 and PAX6 are retinoid-induced transcription factors involved in regulating neuronal differentiation,[49], [50] and are expressed in neurons derived from TERA2.cl.SP12 stem cells.
as §4

Structure (SMILES)	binding-curve upper asymptote (coactivator recruitment), RARα [1]	EC50 [1]	EC50 [2]	binding-curve upper asymptote (coactivator recruitment), RARβ ([2]; in words)	RAR-type selectivity from binding assay ([2]; in words, from EC50 values of Table 1)	proportion of cells expressing differentiation markers SSEA-3, TRA-1–60, A2B5 [3]	EC50 [4]	binding-curve upper asymptote (coactivator recruitment), RARγ [4]	EC50 ([1]; estimated EC50, TR-FRET co-activator assay, 4 h incubation)	expression of epithelial phenotype marker cytokeratin 8 (TERA2.cl.SP12 cells; 10 μM, 1, 2 and 3 weeks, Fig. 7D)	expression of neuronal differentiation marker A2B5 (immunofluorescence) (TERA2.cl.SP12 cells; 10 μM, after 7 days, Fig. 7C)	neuronal differentiation by TUJ-1 staining (TERA2.cl.SP12 cells; 10 μM, up to 3 weeks, Fig. 7C)	induction of RARα and RARγ expression ([5]; 10 μM retinoid, over a 12 h period, Fig. 8A)	induction of RARβ expression, rank order ([5]; dose-response 1 nM to 1 μM, 8 h treatment, all doses, Fig. 8B)	induction of CYP26A1 expression, rank order ([5]; dose-response 1 nM to 1 μM, 8 h treatment, doses <1 μM, Fig. 8B)	NeuroD1 mRNA expression, rank order (TERA2.cl.SP12 stem cells; after 5 days)	NeuroD1 mRNA expression, rank order (TERA2.cl.SP12 stem cells; after 7 days)	induction of PAX6 expression, rank order (TERA2.cl.SP12 stem cells; up to 7 days)
CCOC(=O)c1ccc(-c2nc(-c3ccc4c(c3)C(C)(C)CCC4(C)C)c(C)s2)cc1 [GZ23]	lower asymptotes	88.9 nM	12.1 nM	high asymptotes	surprising selectivity for RARβ	very little activity	847 nM	intermediate										
Cc1sc(-c2ccc(C(=O)O)cc2)nc1-c1ccccc1 [GZ24]	lower asymptotes		77.8 nM	very low asymptotes		very little activity	109 nM	intermediate	77.5 nM									
CC1=C(/C=C/C(C)=C/C=C/C(C)=C/C(=O)O)C(C)(C)CCC1 [ATRA, all-trans-retinoic acid, reference compound]	high curve asymptotes									not detectable	induced	most effective	greatest activity	GZ25 ≫ ATRA > GZ18	GZ25 > GZ18 > ATRA	GZ25 > GZ18 > ATRA	ATRA > GZ25	GZ25 ≫ ATRA > GZ18
